Reference: patent publication US8999983B2, “Modulators of Hec1 activity and methods therefor” (Taivex Therapeutics Corporation, priority 2011, dated 2015)
Where two headings read alike, the source gives them in different places.

Columns and labels:
Format in all cases: cell-based
[1] = test system: MDA-MB-468; experiment: Antiproliferation assay (MTS), MDA-MB-468 cells; conditions: Homo sapiens, MDA-MB-468, 96 h
Method: (§1) Cells were grown at 37° C. in a humidified atmosphere consisting of 5% CO2 and 95% air.
(§2) Antiproliferation Assays: Cells were plated in a 96-well culture plate with 2000-8000 cells per well. The compounds were prepared in DMSO and used to treat cells in a final concentration of less than 1% DMSO. Compound treatment started after overnight incubation of cells (T0). […] Compound was added to the plate in triplicate wells, and the plates were then incubated for 96 hours. DMSO (compound diluent) was also included and added to the plate in control wells. Cell viability was then determined by MTS assay using the CellTiter 96® aqueous non-radioactive cell proliferation assay system (Promega, Madison, Wis. 53711 USA). A plate reader (Vmax, Molecular Devices, Sunnyvale Calif. 94089 USA) was used to determine the optical densities, and the results were used to deduce concentration-response curves. […] The results were analyzed using linear regression software (GraphPad Prism 5; GraphPad Software Inc. La Jolla Calif. 92037 USA).

[2] = test system: MDA-MB-231; experiment: Antiproliferation assay (MTS), MDA-MB-231 cells; conditions: Homo sapiens, MDA-MB-231, 96 h, read-out: Antiproliferative IC50 MDA-MB-231, Table 1
Method: as §1, §2

[3] = test system: Hela; experiment: Antiproliferation assay (MTS), HeLa cells; conditions: Homo sapiens, 96 h
Method: as §1, §2

[4] = test system: K562; experiment: Antiproliferation assay (MTS), K562 cells; conditions: Homo sapiens, K562, 96 h
Method: as §1, §2

[5] = Table 1, read-out: Antiproliferative IC50 MDA-MB-468
[6] = Table 1, read-out: Antiproliferative IC50 Hela
[7] = Table 1, read-out: Antiproliferative IC50 K562
[8] = Table 2, read-out: Antiproliferative IC50 Hela

Row | SMILES | IC50 [1, 5] | IC50 [2] | IC50 [3, 6] | IC50 [4, 7] | IC50 ([1]; Table 2, read-out: Antiproliferative IC50 MDA-MB-468) | IC50 [3, 8] | IC50 ([4]; Table 2, read-out: Antiproliferative IC50 K562)
1 | Cc1cc(Sc2ccccc2Cl)cc(C)c1-c1csc(NC(=O)c2ccncc2)n1 [Compound 39, N-{4-(4-(2-Chlorophenylsulfanyl)-2,6-dimethylphenyl)thiazol-2-yl}isonicotinamide] | 73.9 nM | 55.9 nM | 211 nM | 36.2 nM | – | – | –
2 | Cc1cc(N(C)C)cc(C)c1-c1csc(NC(=O)c2ccncc2)n1 [Compound 1, N-{4-(4-(Dimethylamino)-2,6-dimethylphenyl)thiazol-2-yl}isonicotinamide] | 167 nM | 144 nM | 251 nM | 86.7 nM | – | – | –
3 | Cc1cc(Sc2ccc(O)cc2)cc(C)c1-c1csc(NC(=O)c2ccncc2)n1 [Compound 34, N-{4-(4-(4-Hydroxyphenylsulfanyl)-2,6-dimethylphenyl)thiazol-2-yl}isonicotinamide] | 279 nM | 184 nM | 302 nM | 89.4 nM | – | – | –
4 | Cc1cc(OCC2CC2)cc(C)c1-c1csc(NC(=O)c2ccncc2)n1 [Compound 4, N-{4-(4-(Cyclopropylmethoxy)-2,6-dimethylphenyl)thiazol-2-yl}isonicotinamide] | 245 nM | 157 nM | 281 nM | 206 nM | – | – | –
5 | COc1ccc(Sc2cc(C)c(-c3csc(NC(=O)c4ccncc4)n3)c(Cl)c2)cc1 [Compound 3, N-{4-(2-Chloro-4-(4-methoxyphenylsulfanyl)-6-methylphenyl)thiazol-2-yl}isonicotinamide] | 27 nM | 28.2 nM | 26.9 nM | 23.4 nM | – | – | –
6 | Cc1cc(Sc2cnc(OCCN(C)C)cn2)cc(C)c1-c1csc(NC(=O)c2ccncc2)n1 [Compound 28, N-(4-(4-{5-(2-(Dimethylamino)ethoxy)pyrazin-2-ylthio}-2,6-dimethylphenyl)thiazol-2-yl)isonicotinamide] | 74.5 nM | 124 nM | 32.8 nM | 59.2 nM | – | – | –
7 | COc1ccc(Sc2cc(C)c(-c3csc(NC(=O)c4ccncc4)n3)c(C)c2)cc1OC [Compound 33, N-{4-(4-(3,4-Dimethoxyphenylsulfanyl)-2,6-dimethylphenyl)thiazol-2-yl}isonicotinamide] | 73 nM | 49.4 nM | 57.1 nM | 28.3 nM | – | – | –
8 | COCCOc1cnc([S+]([O-])c2cc(C)c(-c3csc(NC(=O)c4ccncc4)n3)c(C)c2)cn1 (centres unmarked) [Compound 32, N-(4-{4-(5-(2-Methoxyethoxy)pyrazin-2-ylsulfinyl)-2,6-dimethylphenyl}thiazol-2-yl)isonicotinamide] | 1280 nM | 1700 nM | 1120 nM | 734 nM | – | – | –
9 | COc1ccc(Oc2cc(C)c(-c3nc(NC(=O)c4ccncc4)sc3Br)c(C)c2)cc1 [Compound 2, N-{5-Bromo-4-(4-(4-methoxyphenoxy)-2,6-dimethylphenyl)thiazol-2-yl}isonicotinamide] | 594 nM | 484 nM | 660 nM | 273 nM | – | – | –
10 | Cc1cc(OCCN(C)C)cc(C)c1-c1csc(NC(=O)c2ccncc2)n1 [Compound 23, N-(4-{4-(2-(Dimethylamino)ethoxy)-2,6-dimethylphenyl}thiazol-2-yl)isonicotinamide] | > 10000 nM | > 10000 nM | > 10000 nM | > 10000 nM | – | – | –
11 | Cc1cc(C)c(-c2csc(NC(=O)Cc3ccncc3)n2)c(C)c1 [Compound 47, N-(4-Mesitylthiazol-2-yl)-2-(pyridin-4-yl)acetamide] | 304 nM | 312 nM | 619 nM | 382 nM | – | – | –
12 | Cc1cc(Sc2ccc(NS(C)(=O)=O)cc2)cc(C)c1-c1csc(NC(=O)c2ccncc2)n1 [Compound 43, N-(4-(2,6-Dimethyl-4-((4-(methylsulfonamido)phenyl)thio)phenyl)thiazol-2-yl)isonicotinamide] | 49.4 nM | 53.1 nM | 66.4 nM | 26.6 nM | – | – | –
13 | Cc1cc(Sc2ccc(Cl)cc2)cc(C)c1-c1csc(NC(=O)c2ccncc2)n1 [Compound 40, N-{4-(4-(4-Chlorophenylsulfanyl)-2,6-dimethylphenyl)thiazol-2-yl}isonicotinamide] | 124 nM | 200 nM | 585 nM | 93.5 nM | – | – | –
14 | Cc1cc(Oc2ccc([N+](=O)[O-])nc2)cc(C)c1-c1csc(NC(=O)c2ccncc2)n1 [Compound 24, N-{4-(2,6-Dimethyl-4-(6-nitropyridin-3-yloxy)phenyl)thiazol-2-yl}isonicotinamide] | 158 nM | 181 nM | 73.8 nM | 148 nM | – | – | –
15 | Cc1cc(Nc2ccc(Br)cc2)cc(C)c1-c1csc(NC(=O)c2ccncc2)n1 [II-122, N-(4-(4-(4-Bromophenylamino)-2,6-dimethylphenyl)thiazol-2-yl)isonicotinamide] | – | – | – | – | 1220 nM | – | –
16 | COCCOc1cnc(S(=O)(=O)c2cc(C)c(-c3csc(NC(=O)c4ccncc4)n3)c(C)c2)cn1 [Compound 31, N-(4-{4-(5-(2-Methoxyethoxy)pyrazin-2-ylsulfonyl)-2,6-dimethylphenyl}thiazol-2-yl)isonicotinamide] | 1000 nM | 1120 nM | 957 nM | 635 nM | – | – | –
17 | COc1cc(C)c(-c2csc(NC(=O)Nc3ccncc3)n2)c(C)c1 [Compound 45, 1-(4-(4-Methoxy-2,6-dimethylphenyl)thiazol-2-yl)-3-(pyridin-4-yl)urea] | 615 nM | 628 nM | – | 486 nM | – | – | –
18 | Cc1cc(Oc2ccc(OC(C)C)cc2)cc(C)c1-c1csc(NC(=O)c2ccncc2)n1 [Compound 16, N-{4-(4-(4-Isopropoxyphenoxy)-2,6-dimethylphenyl)thiazol-2-yl}isonicotinamide] | 69.7 nM | 80.7 nM | 80.1 nM | 59.2 nM | – | – | –
19 | Cc1cc(Oc2ccc(O)nc2)cc(C)c1-c1csc(NC(=O)c2ccncc2)n1 [Compound 5, N-{4-(4-(6-Hydroxypyridin-3-yloxy)-2,6-dimethylphenyl)thiazol-2-yl}isonicotinamide] | 1010 nM | 1240 nM | 903 nM | 563 nM | – | – | –
20 | COc1ccc(Oc2cc(C)c(-c3csc(NC(=O)c4ccncc4)n3)c(F)c2)cc1 [Compound 30, N-{4-(2-Fluoro-4-(4-methoxyphenoxy)-6-methylphenyl)thiazol-2-yl}isonicotinamide] | 143 nM | 270 nM | 108 nM | 107 nM | – | – | –
21 | COc1ccc(Oc2cc(C)c(-c3csc(NC(=O)c4ccncc4)n3)c(C)c2)cn1 [Compound 9, N-{4-(4-(6-Methoxypyridin-3-yloxy)-2,6-dimethylphenyl)thiazol-2-yl}isonicotinamide] | 48.4 nM | 65.8 nM | 81.6 nM | 39.1 nM | – | – | –
22 | Cc1cc(Oc2ccc(Oc3ccccc3)cc2)cc(C)c1-c1csc(NC(=O)c2ccncc2)n1 [Compound 26, N-{4-(2,6-Dimethyl-4-(4-phenoxyphenoxy)phenyl)thiazol-2-yl}isonicotinamide] | 132 nM | 99.4 nM | 84.8 nM | 64.4 nM | – | – | –
23 | Cc1cc(Sc2nccn2C)cc(C)c1-c1csc(NC(=O)c2ccncc2)n1 [Compound 41, N-(4-(2,6-Dimethyl-4-((1-methyl-1H-imidazol-2-yl)thio)phenyl)thiazol-2-yl)isonicotinamide] | 62.9 nM | 86.1 nM | 61.5 nM | 31.1 nM | – | – | –
24 | COCCNc1ccc(Oc2cc(C)c(-c3csc(NC(=O)c4ccncc4)n3)c(C)c2)cn1 [Compound 29, N-(4-{4-(6-(2-Methoxyethylamino)pyridin-3-yloxy)-2,6-dimethylphenyl}thiazol-2-yl)isonicotinamide] | 16.6 nM | 21.9 nM | 8.3 nM | 11.7 nM | – | – | –
25 | Cc1cc(Nc2ccc(Br)cc2)cc(C)c1-c1csc(NC(=O)c2ccncc2)n1 [Compound 52, N-(4-(4-(4-Bromophenylamino)-2,6-dimethylphenyl)thiazol-2-yl)isonicotinamide] | – | 717 nM | 2130 nM | 362 nM | – | – | –
26 | Cc1cc(Sc2cnccn2)cc(C)c1-c1csc(NC(=O)c2ccncc2)n1 [Compound 11, N-{4-(2,6-Dimethyl-4-(pyrazin-2-ylthio)phenyl)thiazol-2-yl}isonicotinamide] | 52.4 nM | 47.4 nM | 33.4 nM | 38.2 nM | – | – | –
27 | Cc1cc(C)c(-c2csc(NC(=O)/C=C/c3cccnc3)n2)c(C)c1 [Compound 50, (E)-N-(4-Mesitylthiazol-2-yl)-3-(pyridin-3-yl)acrylamide] | 2170 nM | 1110 nM | – | – | – | – | –
28 | Cc1cc(C)c(-c2csc(NC(=O)/C=C/c3cccnc3)n2)c(C)c1 [II-103, (E)-N-(4-Mesitylthiazol-2-yl)-3-(pyridin-3-yl)acrylamide] | – | – | – | – | – | > 10000 nM | 2480 nM
29 | COc1cc(C)c(-c2csc(NC(=O)Nc3ccncc3)n2)c(C)c1 [II-67, 1-(4-(4-Methoxy-2,6-dimethylphenyl)thiazol-2-yl)-3-(pyridin-4-yl)urea] | – | – | – | – | – | > 10000 nM | –
